{"source": "paper PMC6601628", "about": "(Science (New York, N.Y.), 2019)", "key": {"eIF2B(βγδε)2 octamer [1]": {"biological_target": "eIF2B(βγδε)2 octamer (Homo sapiens, UniProt P49770+Q9UI10)", "sequence (P49770 whole entry)": "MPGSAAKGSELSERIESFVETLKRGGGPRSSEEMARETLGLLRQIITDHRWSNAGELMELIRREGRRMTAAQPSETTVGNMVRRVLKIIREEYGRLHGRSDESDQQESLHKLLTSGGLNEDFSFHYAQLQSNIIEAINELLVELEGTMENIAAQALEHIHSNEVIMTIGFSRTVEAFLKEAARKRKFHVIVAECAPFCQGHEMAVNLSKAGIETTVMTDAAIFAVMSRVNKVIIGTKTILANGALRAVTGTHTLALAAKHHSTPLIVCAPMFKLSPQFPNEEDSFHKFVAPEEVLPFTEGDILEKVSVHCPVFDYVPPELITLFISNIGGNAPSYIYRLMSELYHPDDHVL", "sequence (Q9UI10 whole entry)": "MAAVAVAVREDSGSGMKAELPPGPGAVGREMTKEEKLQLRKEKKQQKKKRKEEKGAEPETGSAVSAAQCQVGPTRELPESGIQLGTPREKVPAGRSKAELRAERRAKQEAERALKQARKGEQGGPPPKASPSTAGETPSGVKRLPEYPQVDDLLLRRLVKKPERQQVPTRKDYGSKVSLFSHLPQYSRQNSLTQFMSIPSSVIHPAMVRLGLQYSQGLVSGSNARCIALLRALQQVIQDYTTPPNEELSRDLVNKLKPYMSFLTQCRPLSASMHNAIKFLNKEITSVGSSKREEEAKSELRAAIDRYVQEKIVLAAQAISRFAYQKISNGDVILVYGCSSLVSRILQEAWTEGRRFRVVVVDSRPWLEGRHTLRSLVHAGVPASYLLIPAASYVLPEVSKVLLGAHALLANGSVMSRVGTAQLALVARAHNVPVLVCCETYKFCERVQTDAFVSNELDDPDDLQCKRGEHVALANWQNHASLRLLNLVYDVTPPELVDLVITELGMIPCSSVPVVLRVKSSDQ", "sequence (Q9NR50 whole entry partner)": "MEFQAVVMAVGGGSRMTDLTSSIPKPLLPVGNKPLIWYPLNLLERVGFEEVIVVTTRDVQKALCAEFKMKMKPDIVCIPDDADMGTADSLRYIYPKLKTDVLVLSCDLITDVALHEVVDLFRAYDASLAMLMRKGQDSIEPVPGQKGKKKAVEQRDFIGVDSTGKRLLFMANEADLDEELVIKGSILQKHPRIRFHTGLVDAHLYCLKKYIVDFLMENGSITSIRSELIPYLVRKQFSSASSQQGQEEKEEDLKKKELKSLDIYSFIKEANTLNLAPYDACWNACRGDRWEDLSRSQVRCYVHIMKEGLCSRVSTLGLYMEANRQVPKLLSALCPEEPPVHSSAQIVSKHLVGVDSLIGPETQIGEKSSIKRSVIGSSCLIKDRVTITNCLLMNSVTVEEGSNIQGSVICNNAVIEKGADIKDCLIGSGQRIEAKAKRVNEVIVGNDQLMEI", "sequence (Q13144 2-721 partner)": "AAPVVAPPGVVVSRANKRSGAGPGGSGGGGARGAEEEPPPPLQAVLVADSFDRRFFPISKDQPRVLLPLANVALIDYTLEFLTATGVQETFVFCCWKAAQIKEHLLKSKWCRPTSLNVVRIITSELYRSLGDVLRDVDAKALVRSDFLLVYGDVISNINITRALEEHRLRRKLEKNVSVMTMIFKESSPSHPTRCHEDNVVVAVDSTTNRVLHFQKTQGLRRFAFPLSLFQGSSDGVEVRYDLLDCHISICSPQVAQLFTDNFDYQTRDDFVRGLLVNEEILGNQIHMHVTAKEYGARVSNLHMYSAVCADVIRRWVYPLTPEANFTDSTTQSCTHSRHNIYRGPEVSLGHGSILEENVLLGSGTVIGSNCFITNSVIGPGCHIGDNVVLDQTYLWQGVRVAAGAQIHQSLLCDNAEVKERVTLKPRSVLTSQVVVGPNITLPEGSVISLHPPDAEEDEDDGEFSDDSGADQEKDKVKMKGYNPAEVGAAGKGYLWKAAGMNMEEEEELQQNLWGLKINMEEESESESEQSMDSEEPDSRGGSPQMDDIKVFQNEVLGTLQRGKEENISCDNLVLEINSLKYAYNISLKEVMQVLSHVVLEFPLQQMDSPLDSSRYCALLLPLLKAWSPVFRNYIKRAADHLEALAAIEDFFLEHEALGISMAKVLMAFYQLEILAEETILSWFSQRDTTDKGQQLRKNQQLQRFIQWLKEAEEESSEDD", "test": "GEF activity, loading of fluorescent GDP onto eIF2", "type": "biochemical", "details": "activator; stabilises assembly of two tetramers; substrate eIF2"}, "eIF2B(βγδε)2 octamer [2]": {"biological_target": "eIF2B(βγδε)2 octamer (Homo sapiens, UniProt P49770+Q9UI10, P49770:N132D)", "sequence (P49770 whole entry N132D)": "as the sequence (P49770 whole entry) above, with N132D counted along it", "sequence (Q9UI10 whole entry)": "as the sequence (Q9UI10 whole entry) above", "sequence (Q9NR50 whole entry partner)": "as the sequence (Q9NR50 whole entry partner) above", "sequence (Q13144 2-721 partner)": "as the sequence (Q13144 2-721 partner) above", "test": "GEF activity, loading of fluorescent GDP onto eIF2", "type": "biochemical", "details": "activator; stabilises assembly of two tetramers; substrate eIF2"}}}
{"smiles": "O=C(COc1ccc(Cl)cc1)N[C@H]1CC[C@H](NC(=O)COc2ccc(Cl)cc2)CC1", "note": "[ISRIB]", "values": [{"measurement": "GEF activity, loading of fluorescent GDP onto eIF2", "setting": "eIF2B(βγδε)2 octamer [1]", "value": "GEF activity of the ISRIB-stabilized eIF2B octamer"}, {"measurement": "GEF activity, loading of fluorescent GDP onto eIF2", "setting": "eIF2B(βγδε)2 octamer [2]", "value": "eIF2B-βN132D tetramers and ISRIB-stabilized octamers"}]}
